From patent US12409171B2, “Pharmaceutically active pyrazolo-pyridone modulators of DCN1/2-mediated cullin neddylation” (UNIVERSITY OF KENTUCKY RESEARCH FOUNDATION, priority 2019, dated 2025)

biological target: T1, DCN1 (Homo sapiens (Human), UniProt Q96GG9); assay: TR-FRET binding assay (biotin-DCN1 / Ac-UBE2M12-AlexaFluor488); conditions: mean ± SD (n); read-out: DCN1_TRFRET Mean EC50
Method in brief: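 Biotinylated DCN1 binding to Ac-UBE2M12-AlexaFluor488 read by TR-FRET; assay cocktail pre-incubated 1 h at room temperature before compounds added from DMSO stocks by pin transfer. IC50 is the mean of three replicates ± SD; compounds tested in triplicate or more.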

T1 sequence (Q96GG9 whole entry): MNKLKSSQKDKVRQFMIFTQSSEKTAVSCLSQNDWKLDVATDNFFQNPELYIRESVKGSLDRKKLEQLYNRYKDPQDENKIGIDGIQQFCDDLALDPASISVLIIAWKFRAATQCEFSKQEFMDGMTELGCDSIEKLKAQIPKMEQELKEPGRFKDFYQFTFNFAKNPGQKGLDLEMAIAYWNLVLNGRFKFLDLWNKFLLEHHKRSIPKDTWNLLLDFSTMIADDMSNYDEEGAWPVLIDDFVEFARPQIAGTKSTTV

Compound	EC50 [nM]
CCOC1=Nc2c(c(C)nn2-c2ccccc2)[C@H](c2ccc(F)cc2)[C@@H]1NC(=O)c1cccc(C(F)(F)F)c1 [RG-0009518, N-[(4S,5S)-6-ethoxy-4-(4-fluorophenyl)-3-methyl-1-phenyl-1H,4H,5H-pyrazolo[3,4-b]pyridin-5-yl]-3-(trifluoromethyl)benzamide]	> 36500
Cc1nn(-c2ccccc2)c2c1[C@H](c1ccc(F)cc1)[C@H](N(C)C(=O)c1cccc(C(F)(F)F)c1)C(=O)N2C [RG-0008886, N-[(4S,5S)-4-(4-fluorophenyl)-3,7-dimethyl-6-oxo-1-phenyl-1H,4H,5H,6H,7H-pyrazolo[3,4-b]pyridin-5-yl]-N-methyl-3-(trifluoromethyl)benzamide]	> 36500
CCN1C(=O)[C@@H](NC(=O)c2cccc(F)c2)[C@@H](c2ccc(F)cc2)c2c(C)nn(-c3ccccc3)c21 [RG-0013062, N-[(4S,5S)-7-ethyl-4-(4-fluorophenyl)-3-methyl-6-oxo-1-phenyl-1H,4H,5H,6H,7H-pyrazolo[3,4-b]pyridin-5-yl]-3-fluorobenzamide]	1810 ± 153
CCN1C(=O)[C@@H](NC(=O)c2cccc(C(F)(F)F)c2)[C@@H](c2ccc(F)cc2)c2c(CNCCN)nn(-c3ccccc3)c21 [RG-0014149, N-[(4S,5S)-3-{[(2-aminoethyl)amino]methyl}-7-ethyl-4-(4-fluorophenyl)-6-oxo-1-phenyl-1H,4H,5H,6H,7H-pyrazolo[3,4-b]pyridin-5-yl]-3-(trifluoromethyl)benzamide]	126 ± 12.1
CCN1C(=O)[C@@H](NC(=O)c2cccc(C(F)(F)F)c2)[C@@H](c2ccc(F)cc2)c2c(COC(C)=O)nn(-c3ccccc3)c21 [RG-0013839, [(4S,5S)-7-ethyl-4-(4-fluorophenyl)-6-oxo-1-phenyl-5-[3-(trifluoromethyl)benzamido]-1H,4H,5H,6H,7H-pyrazolo[3,4-b]pyridin-3-yl]methyl acetate]	116 ± 13.2
CCCN1C(=O)[C@@H](N(CCC)C(=O)c2cccc(C(F)(F)F)c2)[C@@H](c2ccc(F)cc2)c2c(C)nn(-c3ccccc3)c21 [RG-0009516, N-[(4S,5S)-4-(4-fluorophenyl)-3-methyl-6-oxo-1-phenyl-7-propyl-1H,4H,5H,6H,7H-pyrazolo[3,4-b]pyridin-5-yl]-N-propyl-3-(trifluoromethyl)benzamide]	> 36500
Cc1cccc(C(=O)N[C@@H]2C(=O)N(C)c3c(c(C)nn3C(C)(C)C)[C@@H]2c2ccc(F)cc2)c1 [RG-0007412, N-[(4S,5S)-1-tert-butyl-4-(4-fluorophenyl)-3,7-dimethyl-6-oxo-1H,4H,5H,6H,7H-pyrazolo[3,4-b]pyridin-5-yl]-3-methylbenzamide]	2340 ± 745
CCN1C(=O)[C@@H](NC(=O)c2ccc3ncsc3c2)[C@@H](c2ccc(F)cc2)c2c(C)nn(-c3ccccc3)c21 [RG-0014158, N-[(4S,5S)-7-ethyl-4-(4-fluorophenyl)-3-methyl-6-oxo-1-phenyl-1H,4H,5H,6H,7H-pyrazolo[3,4-b]pyridin-5-yl]-1,3-benzothiazole-6-carboxamide]	6310 ± 465
CCCn1nc(C)c2c1N(CC)C(=O)[C@@H](NC(=O)c1cccc(C)c1)[C@H]2c1ccc(F)cc1 [RG-0008665, N-[(4S,5S)-7-ethyl-4-(4-fluorophenyl)-3-methyl-6-oxo-1-propyl-1H,4H,5H,6H,7H-pyrazolo[3,4-b]pyridin-5-yl]-3-methylbenzamide]	244 ± 20.8
CCN1C(=O)[C@@H](NC(=O)c2cccc(C(F)(F)F)c2)[C@@H](c2ccc(F)cc2)c2c(CNS(=O)(=O)NC(=O)OC(C)(C)C)nn(-c3ccccc3)c21 [RG-0014160, tert-butyl N-({[(4S,5S)-7-ethyl-4-(4-fluorophenyl)-6-oxo-1-phenyl-5-[3-(trifluoromethyl)benzamido]-1H,4H,5H,6H,7H-pyrazolo[3,4-b]pyridin-3-yl]methyl}sulfamoyl)carbamate]	194 ± 19.9
CCN1C(=O)[C@@H](NC(=O)c2cccc(C(F)(F)F)c2)[C@@H](c2ccc(F)c(OC)c2)c2c(C)nn(-c3ccccc3)c21 [RG-0013996, N-[(4S,5S)-7-ethyl-4-(4-fluoro-3-methoxyphenyl)-3-methyl-6-oxo-1-phenyl-1H,4H,5H,6H,7H-pyrazolo[3,4-b]pyridin-5-yl]-3-(trifluoromethyl)benzamide]	1270 ± 47
CCN1C(=O)[C@@H](NC(=O)c2cccc(C(C)C)c2)[C@@H](c2ccc(F)cc2)c2c(C)nn(-c3ccccc3)c21 [RG-0014166, N-[(4S,5S)-7-ethyl-4-(4-fluorophenyl)-3-methyl-6-oxo-1-phenyl-1H,4H,5H,6H,7H-pyrazolo[3,4-b]pyridin-5-yl]-3-(propan-2-yl)benzamide]	473 ± 70.7
CCN1C(=O)[C@@H](NC(=O)c2cccc(C)c2)[C@@H](c2ccc(F)cc2)c2c(C)nn(C3CCCC3)c21 [RG-0008878, N-[(4S,5S)-1-cyclopentyl-7-ethyl-4-(4-fluorophenyl)-3-methyl-6-oxo-1H,4H,5H,6H,7H-pyrazolo[3,4-b]pyridin-5-yl]-3-methylbenzamide]	770 ± 76.1
CCN1C(=O)[C@@H](NC(=O)c2cccc(C)c2)[C@@H](c2ccc(F)cc2)c2c(CO)nn(-c3ccccc3)c21 [RG-0008880, N-[(4S,5S)-7-ethyl-4-(4-fluorophenyl)-3-(hydroxymethyl)-6-oxo-1-phenyl-1H,4H,5H,6H,7H-pyrazolo[3,4-b]pyridin-5-yl]-3-methylbenzamide]	173 ± 29.7
CC(=O)N1C(=O)[C@@H](NC(=O)c2cccc(C)c2)[C@@H](c2ccc(F)cc2)c2c(C)nn(-c3ccccc3)c21 [RG-0005656, N-[(4S,5S)-7-acetyl-4-(4-fluorophenyl)-3-methyl-6-oxo-1-phenyl-1H,4H,5H,6H,7H-pyrazolo[3,4-b]pyridin-5-yl]-3-methylbenzamide]	5640 ± 827
CCN1C(=O)[C@@H](NC(=O)c2cccc(C(F)(F)F)c2)[C@@H](c2ccc(F)cc2)c2c(CNC)nn(-c3ccccc3)c21 [RG-0014056, N-[(4S,5S)-7-ethyl-4-(4-fluorophenyl)-3-[(methylamino)methyl]-6-oxo-1-phenyl-1H,4H,5H,6H,7H-pyrazolo[3,4-b]pyridin-5-yl]-3-(trifluoromethyl)benzamide]	118 ± 9.03
CCN1C(=O)[C@@H](NC(=O)c2cccc(C(F)(F)F)c2)[C@@H](c2ccc(F)cc2)c2c(C)nn(-c3cccc(C)c3)c21 [RG-0014035, N-[(4S,5S)-7-ethyl-4-(4-fluorophenyl)-3-methyl-1-(3-methylphenyl)-6-oxo-1H,4H,5H,6H,7H-pyrazolo[3,4-b]pyridin-5-yl]-3-(trifluoromethyl)benzamide]	388 ± 38.5

biological target: T1, DCN1; assay: not given; conditions: class symbols H, M, M-L, legend not given; cited from earlier work

Compound	Pulse-Chase inh @ 30 uM
COc1ccc([C@@H]2c3c(C)nn(C)c3NC(=O)[C@H]2NC(=O)c2cccc(C)c2)cc1F (racemic) [SJ000398158]	M-L
Cc1nn(C)c2c1[C@@H](c1ccc(F)c(F)c1)[C@H](NC(=O)c1ccc(Cl)cc1)C(=O)N2 (racemic) [SJ000399589]	M-L
